By chromatographic logP is commonly meant a lipophilicity value derived from retention on a column. As a reminder, the logP is the decadic logarithm of the partition coefficient of the neutral form, usually between octanol and water. Low readings indicate a more hydrophilic compound, high ones a more lipophilic compound.

Chromatographic logP and logP data for 33 molecules are collected here from patent US20070293514A1, “Triazolopyrimidines” (priority 2003, published 2007).

Structures are written as SMILES.

A short description of this data set: logP by HPLC (EEC Directive 79/831 Annex V. A8, gradient method). Type of data set: physicochemical. As to conditions: acetonitrile/0.1% aqueous phosphoric acid.
For the molecule `CCC(C)c1c(Cl)nc2ncnn2c1Cl` (stereo not drawn) [5,7-dichloro-6-sec-butyl[1,2,4]triazolo[1,5-a]pyrimidine], the chromatographic logP was 2.4.
The same measure, in the same setting: in the case of `CCC(C)c1c(O)n2ncnc2[nH]c1=O` (stereo not drawn) [6-sec-butyl-7-hydroxy[1,2,4]triazolo[1,5-a]pyrimidin-5(4H)-one] it was 0.7; in that of `C[Si](C)(C)CNc1c(-c2ccc(F)cc2Cl)c(Cl)nc2ncnn12` [Example 1], 3.61; in that of `CC(Nc1c(-c2c(F)cc(F)cc2F)c(Cl)nc2ncnn12)[Si](C)(C)C` (stereo not drawn) [Example 2], 3.71.
Molecule `C[Si](C)(C)CNc1c(-c2c(F)cccc2Cl)c(Cl)nc2ncnn12` [Example 3] displayed a logP of 3.43.
Take `C[Si](C)(C)CNc1c(-c2c(F)cc(F)cc2F)c(Cl)nc2ncnn12` [Example 4]: the chromatographic logP is 3.39.
Take `CC(Nc1c(-c2c(F)cccc2Cl)c(Cl)nc2ncnn12)[Si](C)(C)C` (stereo not drawn) [Example 5]: the logP is 3.79.
Consider `CC(Nc1c(-c2ccc(F)cc2Cl)c(Cl)nc2ncnn12)[Si](C)(C)C` (stereo not drawn) [Example 6], for which the log partition coefficient (logP) came to 3.95.
Molecule `CC(Nc1c(-c2ccccc2Cl)c(Cl)nc2ncnn12)[Si](C)(C)C` (stereo not drawn) [Example 7] gave a logP of 3.83. This logP and that of the molecule before are within 0.2 log units of each other.
Same read-out and setting: with `CC(C)c1nc2nc(Cl)c(-c3ncc(C(F)(F)F)cc3Cl)c(NC[Si](C)(C)C)n2n1` [Example 8] the figure was 4.51; with `CC(C)c1nc2nc(Cl)c(-c3ncncc3F)c(NC(C)[Si](C)(C)C)n2n1` (stereo not drawn) [Example 9], 3.61.
For `CC(Nc1c(-c2ncccc2C(F)(F)F)c(Cl)nc2ncnn12)[Si](C)(C)C` (stereo not drawn) [Example 10], the logP turned out to be 3.06.
Same read-out and setting: in the case of `CC(Nc1c(-c2c(F)cccc2Cl)c(Cl)nc2nc(C3CC3)nn12)[Si](C)(C)C` (stereo not drawn) [Example 11] it was 4.65.
Still for that read-out and setting: in the case of `C[Si](C)(C)CNc1c(-c2c(F)cccc2Cl)c(Cl)nc2nc(C3CC3)nn12` [Example 12] it was 4.22.
`C[Si](C)(C)CNc1c(-c2cc(F)ccc2F)c(Cl)nc2nc(C3CC3)nn12` [Example 13] yielded a chromatographic logP of 3.99.
With `CC(Nc1c(-c2cc(F)ccc2F)c(Cl)nc2nc(C3CC3)nn12)[Si](C)(C)C` (stereo not drawn) [Example 14], the chromatographic logP was determined as 4.35.
Same read-out and setting: with `CC(C)c1nc2nc(Cl)c(-c3cc(F)ccc3F)c(NC(C)[Si](C)(C)C)n2n1` (stereo not drawn) [Example 15] the figure was 4.58; with `CC(C)c1nc2nc(Cl)c(-c3cc(F)ccc3F)c(NC[Si](C)(C)C)n2n1` [Example 16], 4.21.
`Cc1nc2nc(Cl)c(-c3cc(F)ccc3F)c(NC(C)[Si](C)(C)C)n2n1` (stereo not drawn) [Example 17]: the chromatographic logP amounted to 3.73.
The molecule `Cc1nc2nc(Cl)c(-c3cc(F)ccc3F)c(NC[Si](C)(C)C)n2n1` [Example 18] gave a chromatographic logP of 3.4.
In turn, `CC(Nc1c(-c2ncncc2F)c(Cl)nc2nc(C3CC3)nn12)[Si](C)(C)C` (stereo not drawn) [Example 19] had a log partition coefficient (logP) of 2.99.
Still for that read-out and setting: in the case of `C[Si](C)(C)CNc1c(-c2ccccc2Cl)c(Cl)nc2nc(C3CC3)nn12` [Example 20] it was 4.23.
The same measure, in the same setting: with `CC(Nc1c(-c2ccccc2Cl)c(Cl)nc2nc(C3CC3)nn12)[Si](C)(C)C` (stereo not drawn) [Example 21] the figure was 4.66; with `C[Si](C)(C)CNc1c(-c2ncncc2F)c(Cl)nc2nc(C3CC3)nn12` [Example 22], 3.02.
`CC(Nc1c(-c2ncncc2Cl)c(Cl)nc2ncnn12)[Si](C)(C)C` (stereo not drawn) [Example 23] displayed a lipophilicity (logP) of 2.70.
The same measure, in the same setting: with `C[Si](C)(C)CNc1c(-c2ncncc2Cl)c(Cl)nc2ncnn12` [Example 24] the figure was 2.44.
Regarding `CCC(C)c1c(Cl)nc2ncnn2c1NC[Si](C)(C)C` (stereo not drawn) [Example 26, 5-chloro-6-sec-butyl-7-trimethylsilylmethylamino[1,2,4]triazolo[1,5-a]pyrimidine], the chromatographic logP was 3.34.
`Cc1nc2nc(Cl)c(-c3ncncc3F)c(NC[Si](C)(C)C)n2n1` [Example 27] gave a logP of 2.43.
Same read-out and setting: in the case of `Cc1nc2nc(Cl)c(-c3ncncc3F)c(NC(C)[Si](C)(C)C)n2n1` (stereo not drawn) [Example 28] it was 2.73.
In turn, `C[Si](C)(C)CNc1c(-c2cc(F)ccc2F)c(Cl)nc2ncnn12` [Example 39] came in with a chromatographic logP of 3.26.
Turning to `CC(Nc1c(-c2cc(F)ccc2F)c(Cl)nc2ncnn12)[Si](C)(C)C` (stereo not drawn) [Example 40], the chromatographic logP amounted to 3.57.
The molecule `C[Si](C)(C)CNc1c(-c2ncncc2F)c(Cl)nc2ncnn12` [Example 41] registered a lipophilicity (logP) of 2.28.
`CC(Nc1c(-c2ncncc2F)c(Cl)nc2ncnn12)[Si](C)(C)C` (stereo not drawn) [Example 42] returned a log partition coefficient (logP) of 2.57.
